Numbers after ± are expanded uncertainties.
Test: mn = molality of the nth substance listed, in mol/kg
Conditions: 101 kPa, Liquid, Linear variable-path acoustic interferometer

CCCC[N+](CCCC)(CCCC)CCCC.[Br-] [tetrabutylammonium bromide] + O
speed of sound (283.15 K, m1 = 0.05): 1463 ± 1.8 m/s
speed of sound (283.15 K, m1 = 0.075): 1470.4 ± 1.9 m/s
speed of sound (283.15 K, m1 = 0.1): 1477.8 ± 1.8 m/s
speed of sound (283.15 K, m1 = 0.2): 1506.2 ± 2.4 m/s
speed of sound (283.15 K, m1 = 0.3): 1532.5 ± 1.8 m/s
speed of sound (283.15 K, m1 = 0.5): 1579 ± 1.9 m/s
speed of sound (283.15 K, m1 = 0.75): 1628.2 ± 1.9 m/s
speed of sound (283.15 K, m1 = 1): 1667.1 ± 1.9 m/s
speed of sound (283.15 K, m1 = 1.5): 1718.2 ± 2 m/s
speed of sound (283.15 K, m1 = 2): 1743.4 ± 2.1 m/s
speed of sound (283.15 K, m1 = 2.5): 1752.2 ± 2.1 m/s
speed of sound (283.15 K, m1 = 3): 1753.9 ± 2.1 m/s
speed of sound (298.15 K, m1 = 0.05): 1508.4 ± 2 m/s
speed of sound (298.15 K, m1 = 0.075): 1514.2 ± 1.8 m/s
speed of sound (298.15 K, m1 = 0.1): 1520.2 ± 1.8 m/s
speed of sound (298.15 K, m1 = 0.2): 1541.4 ± 1.8 m/s
speed of sound (298.15 K, m1 = 0.3): 1561 ± 1.8 m/s
speed of sound (298.15 K, m1 = 0.5): 1596.3 ± 1.9 m/s
speed of sound (298.15 K, m1 = 0.75): 1632.7 ± 1.9 m/s
speed of sound (298.15 K, m1 = 1): 1661.2 ± 1.9 m/s
speed of sound (298.15 K, m1 = 1.5): 1697.4 ± 2 m/s
speed of sound (298.15 K, m1 = 2): 1713.7 ± 2 m/s
speed of sound (298.15 K, m1 = 2.5): 1718 ± 2.1 m/s
speed of sound (298.15 K, m1 = 3): 1717.6 ± 2.1 m/s
speed of sound (318.15 K, m1 = 0.05): 1544.6 ± 2 m/s
speed of sound (318.15 K, m1 = 0.075): 1548.4 ± 1.8 m/s
speed of sound (318.15 K, m1 = 0.1): 1552.9 ± 1.8 m/s
speed of sound (318.15 K, m1 = 0.2): 1567.4 ± 1.8 m/s
speed of sound (318.15 K, m1 = 0.3): 1580.7 ± 1.8 m/s
speed of sound (318.15 K, m1 = 0.5): 1604.7 ± 1.8 m/s
speed of sound (318.15 K, m1 = 0.75): 1627.3 ± 1.9 m/s
speed of sound (318.15 K, m1 = 1): 1644.1 ± 1.9 m/s
speed of sound (318.15 K, m1 = 1.5): 1663.3 ± 2 m/s
speed of sound (318.15 K, m1 = 2): 1669.5 ± 2 m/s
speed of sound (318.15 K, m1 = 2.5): 1668.5 ± 2.1 m/s
speed of sound (318.15 K, m1 = 3): 1668.3 ± 2.1 m/s
speed of sound (338.15 K, m1 = 0.05): 1558.6 ± 1.8 m/s
speed of sound (338.15 K, m1 = 0.075): 1561.2 ± 1.8 m/s
speed of sound (338.15 K, m1 = 0.1): 1564.2 ± 1.8 m/s
speed of sound (338.15 K, m1 = 0.2): 1573.6 ± 1.8 m/s
speed of sound (338.15 K, m1 = 0.3): 1582.4 ± 1.8 m/s
speed of sound (338.15 K, m1 = 0.5): 1597 ± 1.8 m/s
speed of sound (338.15 K, m1 = 0.75): 1610.3 ± 1.9 m/s
speed of sound (338.15 K, m1 = 1): 1619.5 ± 1.9 m/s
speed of sound (338.15 K, m1 = 1.5): 1626.6 ± 1.9 m/s
speed of sound (338.15 K, m1 = 2): 1625 ± 2 m/s
speed of sound (338.15 K, m1 = 2.5): 1619.5 ± 2 m/s
speed of sound (338.15 K, m1 = 3): 1615.4 ± 2.1 m/s

C[N+](C)(C)C.[Br-] [tetramethylammonium bromide] + O
speed of sound (283.15 K, m1 = 0.05): 1451 ± 1.7 m/s
speed of sound (283.15 K, m1 = 0.075): 1452.9 ± 1.7 m/s
speed of sound (283.15 K, m1 = 0.1): 1455 ± 1.7 m/s
speed of sound (283.15 K, m1 = 0.2): 1462.1 ± 1.7 m/s
speed of sound (283.15 K, m1 = 0.3): 1469.5 ± 1.7 m/s
speed of sound (283.15 K, m1 = 0.5): 1483.1 ± 1.7 m/s
speed of sound (283.15 K, m1 = 0.75): 1499.8 ± 1.7 m/s
speed of sound (283.15 K, m1 = 1): 1515.7 ± 1.8 m/s
speed of sound (283.15 K, m1 = 1.5): 1544.7 ± 1.8 m/s
speed of sound (283.15 K, m1 = 2): 1571.1 ± 1.8 m/s
speed of sound (283.15 K, m1 = 2.5): 1595.4 ± 1.8 m/s
speed of sound (283.15 K, m1 = 3): 1617.4 ± 1.8 m/s
speed of sound (298.15 K, m1 = 0.05): 1499.7 ± 1.8 m/s
speed of sound (298.15 K, m1 = 0.075): 1500.3 ± 1.7 m/s
speed of sound (298.15 K, m1 = 0.1): 1502.5 ± 1.7 m/s
speed of sound (298.15 K, m1 = 0.2): 1508.1 ± 1.7 m/s
speed of sound (298.15 K, m1 = 0.3): 1513.7 ± 1.8 m/s
speed of sound (298.15 K, m1 = 0.5): 1524.7 ± 1.8 m/s
speed of sound (298.15 K, m1 = 0.75): 1537.9 ± 1.8 m/s
speed of sound (298.15 K, m1 = 1): 1550.8 ± 1.8 m/s
speed of sound (298.15 K, m1 = 1.5): 1575.1 ± 1.8 m/s
speed of sound (298.15 K, m1 = 2): 1597.2 ± 1.8 m/s
speed of sound (298.15 K, m1 = 2.5): 1617 ± 1.8 m/s
speed of sound (298.15 K, m1 = 3): 1633.7 ± 1.9 m/s
speed of sound (318.15 K, m1 = 0.05): 1538.7 ± 1.9 m/s
speed of sound (318.15 K, m1 = 0.075): 1540 ± 1.8 m/s
speed of sound (318.15 K, m1 = 0.1): 1541.1 ± 1.8 m/s
speed of sound (318.15 K, m1 = 0.2): 1545.8 ± 1.8 m/s
speed of sound (318.15 K, m1 = 0.3): 1550.4 ± 1.8 m/s
speed of sound (318.15 K, m1 = 0.5): 1559.3 ± 1.8 m/s
speed of sound (318.15 K, m1 = 0.75): 1569.3 ± 1.8 m/s
speed of sound (318.15 K, m1 = 1): 1578.6 ± 1.8 m/s
speed of sound (318.15 K, m1 = 1.5): 1596.6 ± 1.8 m/s
speed of sound (318.15 K, m1 = 2): 1613.1 ± 1.8 m/s
speed of sound (318.15 K, m1 = 2.5): 1628.8 ± 1.8 m/s
speed of sound (318.15 K, m1 = 3): 1644.7 ± 1.9 m/s
speed of sound (338.15 K, m1 = 0.05): 1555.6 ± 1.8 m/s
speed of sound (338.15 K, m1 = 0.075): 1556.2 ± 1.8 m/s
speed of sound (338.15 K, m1 = 0.1): 1556.9 ± 1.8 m/s
speed of sound (338.15 K, m1 = 0.2): 1560.9 ± 1.8 m/s
speed of sound (338.15 K, m1 = 0.3): 1564.6 ± 1.8 m/s
speed of sound (338.15 K, m1 = 0.5): 1571 ± 1.8 m/s
speed of sound (338.15 K, m1 = 0.75): 1579.2 ± 1.8 m/s
speed of sound (338.15 K, m1 = 1): 1587.3 ± 1.8 m/s
speed of sound (338.15 K, m1 = 1.5): 1602 ± 1.8 m/s
speed of sound (338.15 K, m1 = 2): 1615.7 ± 1.8 m/s
speed of sound (338.15 K, m1 = 2.5): 1628.9 ± 1.8 m/s
speed of sound (338.15 K, m1 = 3): 1641.3 ± 1.9 m/s

— the NIST ThermoML archive (doi:10.1021/je800908h)
